In this assay the target is indoleamine 2,3-dioxygenase (IDO) (Homo sapiens, UniProt P14902). In words: HeLa cell-based indoleamine 2,3-dioxygenase (IDO) assay (kynurenine production, IFNγ-stimulated). Particulars: HeLa cells. The procedure: Assessment of inhibitor activity in HeLa cell-based indoleamine 2,3-dioxygenase (IDO) assay. HeLa (ATCC® CCL-2) cells were obtained from the ATCC® and cultured in Dulbecco's Modified Eagle Medium supplemented with 4.5 g/L glucose, 4.5 […] sodium pyruvate (#10-013-CV, Corning), 2 mM L-alanyl-L-glutamine dipeptide (#35050-061, Gibco), 100U/mL penicillin, 100 μg/mL streptomycin (#SV30010, HyClone) and 10% fetal bovine serum (#SH30071.03 HyClone). Cells were maintained in a humidified incubator at 37° C. in 5% CO2. […] After 24 hours, the media was aspirated and replaced with media containing IFNγ (#285-IF/CF, R&D Systems) at a final concentration of 25 ng/mL. A serial dilution of each test compound was added to the cells in a total volume of 200 μL of culture medium. After a further 48 hour incubation, 170 μL of supernatant was transferred from each well to a fresh 96-well plate. 12.1 μL of 6.1N trichloroacetic acid (#T0699, Sigma-Aldrich) was added to each well and mixed, followed by incubation at 65° C. for 20 minutes to hydrolyze N-formylkynurenine, the product of indoleamine 2,3-dioxygenase, to kynurenine. The reaction mixture was then centrifuged for 10 mins at 500×g to sediment the precipitate. 100 μL of the supernatant was transferred from each well to a fresh 96-well plate. 100 μl of 2% (w/v) p-dimethylaminobenzaldehyde (#15647-7, Sigma-Aldrich) in acetic acid (#A6283, Sigma-Aldrich) was added to each well mixed and incubated at room temperature for 20 mins. Kynurenine concentrations were determined by measuring absorbance at 480 nm and calibrating against an L-kynurenine (#K8625, Sigma-Aldrich) standard curve using a SPECTRAMAX® M2e microplate reader (Molecular Devices). The percentage activity at each inhibitor concentration was determined and IC50 values assessed using nonlinear regression. Activity for compounds described herein is provided in Table 1, wherein potency levels are provided as follows: (Potency: IDO IC50: […])
indoleamine 2,3-dioxygenase (IDO), sequence (P14902 whole entry): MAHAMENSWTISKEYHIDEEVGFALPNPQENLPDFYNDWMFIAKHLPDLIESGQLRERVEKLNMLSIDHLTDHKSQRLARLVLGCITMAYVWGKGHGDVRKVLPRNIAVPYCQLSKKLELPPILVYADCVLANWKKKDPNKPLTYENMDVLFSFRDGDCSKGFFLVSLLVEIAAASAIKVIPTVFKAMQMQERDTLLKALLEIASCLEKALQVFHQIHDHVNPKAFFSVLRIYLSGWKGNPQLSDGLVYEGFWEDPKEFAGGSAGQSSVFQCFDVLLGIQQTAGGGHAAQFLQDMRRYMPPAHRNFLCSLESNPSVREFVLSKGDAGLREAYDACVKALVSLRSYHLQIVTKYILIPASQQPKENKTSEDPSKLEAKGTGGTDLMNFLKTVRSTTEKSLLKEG

[1] abbreviates: potency class, read-out: Patent Potency Hela IC50 A < 10 nM, B > 10 nM, C > 100 nM.
Setting [2] is: IFNγ 25 ng/mL, 48 hour incubation, read-out: IDO Hela IC50.

Read-outs that look alike come from different tables or passages of the source.

`CCC(NC(=O)c1ccc(OC)nc1)C1CCC(c2ccnc(F)c2C)CC1` (mixture of isomers) [Example 55, (+/−)-Cis and trans-N-(1-(4-(2-fluoro-3-methylpyridin-4-yl)cyclohexyl)propyl)-6-methoxynicotinamide]: the IC50 (commonly the concentration at which inhibition is half-maximal) under setting [1] is less than 10 nM. On the same count and under the same terms, to `COc1ccc(C(=O)N[C@H](CC2(C)COC2)[C@H]2CC[C@@H](c3ccnc4ccc(C(F)(F)F)cc43)CC2)cn1` (single isomer, unassigned) [Example 17d, 6-Methoxy-N-(2-(3-methyloxetan-3-yl)-1-(4-(6-(trifluoromethyl)quinolin-4-yl)cyclohexyl)ethyl)nicotinamide] belongs more than 100 nM; to `CC[C@H](NC(=O)c1cnc(C)nc1)[C@H]1CC[C@H](c2ccnc3c(F)cccc32)CC1` (single isomer, unassigned) [Example 61c, N-(1-(4-(8-fluoroquinolin-4-yl)cyclohexyl)propyl)-2-methylpyrimidine-5-carboxamide], more than 100 nM. For `COC[C@H](NC(=O)c1ccc(OC)nc1)[C@H]1CC[C@@H](c2ccnc(OC)c2C(F)F)CC1` (single isomer, unassigned) [Example 51c, N-(1-(4-(3-(difluoromethyl)-2-methoxypyridin-4-yl)cyclohexyl)-2-methoxyethyl)-6-methoxynicotinamide], the IC50 under setting [2] turned out to be 220 nM. Regarding `CCC(NC(=O)c1ccc(OC)nc1)C1CCC(c2ccnc3c(F)cc(F)cc23)CC1` (single isomer, unassigned) [Example 57b], the concentration for half-maximal inhibition (IC50) under setting [1] was less than 10 nM. As for `CCC(NC(=O)c1ccc(OC)nc1)C1CCC(c2cccc(OC(F)F)n2)CC1` (single isomer, unassigned) [Example 48c, N-(1-(4-(6-(difluoromethoxy)pyridin-2-yl)cyclohexyl)propyl)-6-methoxynicotinamide], the IC50 under setting [2] worked out at 270 nM.

For `CC[C@@H](NC(=O)c1cnc(OC)nc1)[C@H]1CC[C@@H](c2ccnc(OC)c2F)CC1` (single isomer, unassigned) [Example 21c, N-(1-(4-(3-Fluoro-2-methoxypyridin-4-yl)cyclohexyl)propyl)-2-methoxypyrimidine-5-carboxamide], under setting [1], the IC50 is more than 100 nM. On to `CC[C@@H](NC(=O)c1cnc(OC)nc1)[C@H]1CC[C@@H](c2ccnc3c(F)cccc32)CC1` (single isomer, unassigned) [Example 60b, N-(1-(4-(8-fluoroquinolin-4-yl)cyclohexyl)propyl)-2-methoxypyrimidine-5-carboxamide], for which the concentration for half-maximal inhibition (IC50) under setting [2] was determined as 250 nM.

As to `COCC(NC(=O)c1ccc(OC)nc1)C1CCC(c2ccnc3ccc(F)cc23)CC1` (stereo not shown) [Example 14a, N-(1-((1s,4s)-4-(6-Fluoroquinolin-4-yl)cyclohexyl)-2-methoxyethyl)-6-methoxynicotinamide], the half-maximal inhibitory concentration (IC50) under setting [1] was less than 10 nM. In the case of `COc1ccc(C(=O)N[C@H](CC2(C)COC2)[C@H]2CC[C@@H](c3ccnc4ccc(C(F)(F)F)cc43)CC2)cn1` (single isomer, unassigned) [Example 17b, 6-Methoxy-N-(2-(3-methyloxetan-3-yl)-1-(4-(6-(trifluoromethyl)quinolin-4-yl)cyclohexyl)ethyl)nicotinamide], the IC50 under setting [2] is 350 nM. Still for that read-out and setting: to `CC[C@@H](NC(=O)c1ccc(OC)nc1)[C@H]1CC[C@@H](c2ccnc3c(F)cccc32)CC1` (single isomer, unassigned) [Example 59c, N-(1-(4-(8-fluoroquinolin-4-yl)cyclohexyl)propyl)-6-methoxynicotinamide] belongs 330 nM.

Take `CCC(NC(=O)c1ccc(OC)nc1)[C@H]1CC[C@@H](c2cc(C)ccn2)CC1` (single isomer, unassigned) [Example 45b, (±)-6-methoxy-N-(1-(4-(4-methylpyridin-2-yl)cyclohexyl)propyl)nicotinamide]: the IC50 under setting [2] came out at 620 nM.

As to `CCC(NC(=O)c1ccc(OC)nc1)[C@H]1CC[C@@H](c2cc(C)ccn2)CC1` (single isomer, unassigned) [Example 45a, (±)-6-methoxy-N-(1-(4-(4-methylpyridin-2-yl)cyclohexyl)propyl)nicotinamide], under setting [2], the IC50 is 220 nM. Same read-out and setting: to `COc1ccc(C(=O)NC(C)C2(O)CCC(c3ccnc4ccc(F)cc34)CC2)cn1` (single isomer, unassigned) [Example 62a, N-(1-((1r,4r)-4-(6-fluoroquinolin-4-yl)-1-hydroxycyclohexyl)ethyl)-6-methoxynicotinamide] belongs 70 nM; to `CCC(NC(=O)c1ccc(OC)nc1)C1CCC(c2cccc(C)n2)CC1` (single isomer, unassigned) [Example 46a, 6-methoxy-N-(1-(4-(6-methylpyridin-2-yl)cyclohexyl)propyl)nicotinamide], 330 nM. In the case of `CCC(NC(=O)c1ccc(OC)nc1)[C@H]1CC[C@@H](c2cc[nH]c(=O)c2C(F)F)CC1` (stereo partly shown) [Example 64-2, N-(1-((1s,4s)-4-(3-(difluoromethyl)-2-oxo-1,2-dihydropyridin-4-yl)cyclohexyl)propyl)-6-methoxynicotinamide], the 50% inhibitory concentration (IC50) under setting [1] was more than 100 nM. Turning to `CC[C@@H](NC(=O)c1ccc(OC)nc1)[C@H]1CC[C@@H](c2cnc3ccccc3c2)CC1` (single isomer, unassigned) [Example 20a, 6-Methoxy-N-(1-(4-(quinolin-3-yl)cyclohexyl)propyl)nicotinamide], the concentration for half-maximal inhibition (IC50) under setting [2] is 250 nM. For `COCCOCC(NC(=O)c1ccc(OC)nc1)C1CCC(c2ccnc3ccc(F)cc23)CC1` (single isomer, unassigned) [Example 15b, N-(1-((1s,4s)-4-(6-Fluoroquinolin-4-yl)cyclohexyl)-2-(2-methoxyethoxy)ethyl)-6-methoxynicotinamide], the IC50 under setting [2] came out at 10 nM. With `COCCOCC(NC(=O)c1ccc(OC)nc1)C1CCC(c2ccnc3ccc(F)cc23)CC1` (single isomer, unassigned) [Example 15a, N-(1-((1s,4s)-4-(6-Fluoroquinolin-4-yl)cyclohexyl)-2-(2-methoxyethoxy)ethyl)-6-methoxynicotinamide], under setting [1], the IC50 was less than 10 nM. The same measure, in the same setting: the value for `COc1ccc(C(=O)N[C@H](CC2(C)COC2)[C@H]2CC[C@@H](c3ccnc4ccc(C(F)(F)F)cc43)CC2)cn1` (single isomer, unassigned) [Example 17c, 6-Methoxy-N-(2-(3-methyloxetan-3-yl)-1-(4-(6-(trifluoromethyl)quinolin-4-yl)cyclohexyl)ethyl)nicotinamide] was more than 100 nM; that for `COC[C@H](NC(=O)c1ccc(OC)nc1)[C@H]1CC[C@@H](c2ccnc(OC)c2C(F)F)CC1` (single isomer, unassigned) [Example 51a, N-(1-(4-(3-(difluoromethyl)-2-methoxypyridin-4-yl)cyclohexyl)-2-methoxyethyl)-6-methoxynicotinamide] was less than 10 nM. On to `CCC(NC(=O)c1ccc(N)nc1)[C@H]1CC[C@@H](c2ccnc(OC)c2C)CC1` (single isomer, unassigned) [Example 29b, 6-Amino-N-(1-((1s,4s)-4-(2-methoxy-3-methylpyridin-4-yl)cyclohexyl)propyl)nicotinamide], for which, under setting [2], the half-maximal inhibitory concentration (IC50) came to 10 nM. On the same count and under the same terms, the value for `CC[C@@H](NC(=O)c1ccc(OC)nc1)[C@H]1CC[C@@H](c2ccn(C)c(=O)c2)CC1` (single isomer, unassigned) [Example 31b, 6-Methoxy-N-(1-(4-(1-methyl-2-oxo-1,2-dihydropyridin-4-yl)cyclohexyl)propyl)nicotinamide] was 970 nM.

On to `CCC(NC(=O)c1ccc(OC)nc1)C1CCC(c2ccnc3c(F)cc(F)cc23)CC1` (single isomer, unassigned) [Example 57a], for which the IC50 under setting [2] was 830 nM. Consider `CCC(NC(=O)c1ccc(OC)nc1)C1CCC(c2cccc(C)n2)CC1` (single isomer, unassigned) [Example 46b, 6-methoxy-N-(1-(4-(6-methylpyridin-2-yl)cyclohexyl)propyl)nicotinamide], for which the concentration for half-maximal inhibition (IC50) under setting [1] is more than 100 nM. Take `CCC(NC(=O)c1cnc(OC)nc1)C1CCC(c2ccnc3c(F)cc(F)cc23)CC1` (single isomer, unassigned) [Example 58b]: the IC50 under setting [2] is 500 nM. As to `CC[C@@H](NC(=O)c1cnc(OC)nc1)[C@H]1CC[C@@H](c2ccnc3c(F)cccc32)CC1` (single isomer, unassigned) [Example 60d, N-(1-(4-(8-fluoroquinolin-4-yl)cyclohexyl)propyl)-2-methoxypyrimidine-5-carboxamide], the half-maximal inhibitory concentration (IC50) under setting [2] turned out to be 170 nM. For `CCC(NC(=O)c1ccc(OC)nc1)C1CCC(c2ccnc3c(C(F)(F)F)cccc23)CC1` (single isomer, unassigned) [Example 18b, 6-Methoxy-N-(1-((1s,4s)-4-(8-(trifluoromethyl)quinolin-4-yl)cyclohexyl)propyl)nicotinamide], the IC50 under setting [1] was less than 10 nM.
